Data taken from article PMC6017567, “Chemical Constituents from Apios americana and Their Inhibitory Activity on Tyrosinase” (Molecules : A Journal of Synthetic Chemistry and Natural …, 2018).
Like-named read-outs stand apart in the source and are kept apart here.

Experiments:
tyrosinase [1] = target: T1, tyrosinase (Agaricus bisporus, UniProt C7FF04); experiment: Slow-binding (time-dependent) inhibition kinetics; format: biochemical; set-up: purchased Sigma-Aldrich T3824; settings: for Time dependence of interaction with tyrosinase: time-course enzyme assay
Description: These curves were calculated by the following Equation (1):(1) [P]=vst+vi−vs/kobs[1−exp(−kobst)] where [P] is the concentration of product from the catalytic reaction, and the first-order rate constant (kobs) is the slow-binding constant corresponding to vi and vs.
The plot of kobs versus [inhibitor, I] is represented in Figure 3B.
First, the initial enzyme–ligand complex (E·I) forms rapidly, and then the isomerized enzyme–ligand complex (E*·I) forms slowly. Using Equation (3), k3 , k4 , and Kiapp kinetic parameters were calculated as 0.0041 S^−1, 0.0004 S^−1, and 35.8 µM, respectively (Table 2).
Target sequence in this assay (C7FF04 1-392 limits assumed): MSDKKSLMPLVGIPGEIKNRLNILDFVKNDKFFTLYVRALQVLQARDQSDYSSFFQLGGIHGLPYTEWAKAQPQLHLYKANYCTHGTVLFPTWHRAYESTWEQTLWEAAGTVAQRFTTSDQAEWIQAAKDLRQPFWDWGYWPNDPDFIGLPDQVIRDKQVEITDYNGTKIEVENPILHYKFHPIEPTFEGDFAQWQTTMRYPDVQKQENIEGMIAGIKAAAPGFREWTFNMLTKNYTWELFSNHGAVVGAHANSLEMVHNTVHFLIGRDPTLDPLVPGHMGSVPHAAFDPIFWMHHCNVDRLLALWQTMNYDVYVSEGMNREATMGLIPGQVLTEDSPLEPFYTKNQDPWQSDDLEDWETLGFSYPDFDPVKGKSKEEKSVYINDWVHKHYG

tyrosinase [2] = target: T1, tyrosinase; experiment: Enzyme kinetics (Lineweaver-Burk and Dixon plots); format: biochemical; settings: Lineweaver-Burk plot
Description: Enzyme kinetics are used to confirm the binding positions between an enzyme and inhibitor [7]. This study confirmed the effect of the substrate concentration on tyrosinase activity using four different concentrations. The initial velocity (vi) was calculated at steady-state. A Lineweaver–Burk plot was represented by 1/v versus 1/substrate in the presence of inhibitor according to enzyme kinetics theory. Their regression lines intersected the y-axis at the same point and the x-axis at different points.
Target sequence in this assay (C7FF04 2-392): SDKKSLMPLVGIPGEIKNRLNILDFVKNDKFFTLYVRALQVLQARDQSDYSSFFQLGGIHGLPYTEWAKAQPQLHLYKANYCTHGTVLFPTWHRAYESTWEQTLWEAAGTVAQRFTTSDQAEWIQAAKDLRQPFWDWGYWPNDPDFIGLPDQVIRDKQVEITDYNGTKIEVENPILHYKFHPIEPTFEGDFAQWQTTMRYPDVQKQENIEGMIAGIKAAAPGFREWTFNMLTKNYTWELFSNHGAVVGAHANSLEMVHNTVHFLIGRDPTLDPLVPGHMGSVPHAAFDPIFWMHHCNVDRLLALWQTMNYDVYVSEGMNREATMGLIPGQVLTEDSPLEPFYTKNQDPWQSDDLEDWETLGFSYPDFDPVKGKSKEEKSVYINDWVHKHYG

tyrosinase [3] = target: T1, tyrosinase; format: biochemical; settings: preincubated with enzyme
Target sequence in this assay (C7FF04 2-392): as above
Description: The amount of L-DOPA converted from L-tyrosine as substrate of this enzyme was quantified in the presence of each respective compound [7].
Briefly, tyrosinase (~45 U/mL, 130 µL) in 50 µM phosphate buffer (pH 6.8) was added to 96-well plates. Twenty microliters of each respective compound (1 mM) were dissolved in MeOH, and compounds 2 and 8 (diluted to 0.065 mM) were added. Finally, 50 µL 1.5 mM L-tyrosine were added as a substrate. After initiating the enzyme reaction at 37 °C, the products were measured using UV-Vis determination (wavelength, 475 nm) for 20 min. The inhibition ratio was calculated using the following Equation (3):Inhibitory activity (%) = [(Δcontrol − Δinhibitor)/Δcontrol] × 100(3)

tyrosinase [4] = target: T1, tyrosinase; set-up: method as in earlier work; settings: ref 8 (Chang et al.); cited from earlier work
Target sequence in this assay (C7FF04 2-392): as above

[5] = time-dependent inhibition, kobs versus [I]

Structure (SMILES)	Time dependence of interaction with tyrosinase (tyrosinase [1])	Binding Mode (tyrosinase [2])	Increase of inhibitory activity by preincubation compared with IC50 in the absence of preincubation (tyrosinase [3]) [fold]	Ki (tyrosinase [1]) [µM]	k5 (tyrosinase [1]; [5]) [S^−1]	k6 (tyrosinase [1]; [5]) [S^−1]	Binding Mode (tyrosinase [4])
O=c1c(-c2ccc(O)cc2O)coc2cc(O[C@@H]3O[C@H](CO[C@@H]4O[C@H](CO)[C@@H](O)[C@H](O)[C@H]4O)[C@@H](O)[C@H](O)[C@H]3O)cc(O)c12 [compound 8, 2′-hydroxygenistein-7-O-gentibioside]	did not exhibit this pattern	Competitive	–	–	–	–	–
O=c1c2c(O)cc(O)cc2oc2oc3cc(O)ccc3c12 [compound 2, lupinalbin A]	time-dependent manner	Competitive	3	35.8	0.0041	0.0004	–
O=c1c(-c2ccc(O)cc2)coc2cc(O)c(O)cc12 [6,7,4′-trihydroxyisolflavone]	–	–	–	–	–	–	competitive inhibitor
